In general, MIC refers to the lowest concentration found to suppress growth. Low readings indicate a more susceptible organism, high ones a less susceptible organism. A word on the GI50: it is the concentration at which growth is held to half of that of the control.

Each structure is given as a SMILES string. In brackets after ≈: the same amount, converted by molar mass.

What all share (type): functional
For assay [1], the system named is Streptococcus pneumoniae. The experiment in a line: Antibacterial activity against Streptococcus pneumoniae ATCC 6303.
For assay [2], the system named is Neisseria gonorrhoeae. The experiment in a line: Antibacterial activity against Neisseria gonorrheae ATCC 49226.
Assay [3] has as its system Micrococcus luteus. The experiment in a line: Antibacterial activity against Micrococcus luteus Presque Isle 456.
The test system of assay [4] is Enterococcus faecalis. The experiment in a line: Antibacterial activity against Enterococcus faecalis ATCC 29212.
In assay [5] the test system is Staphylococcus aureus. The experiment in a line: Antibacterial activity against Staphylococcus aureus ATCC 29213.
Assay [6] relates to KM-20L2. Kind of assay: Cytotoxicity against human KM20L2 cells after 48 hrs by SRB assay. Conditions: KM-20L2, 48 h.
Assay [7] relates to BXPC-3. Kind of assay: Cytotoxicity against human BxPC3 cells after 48 hrs by SRB assay. Conditions: BXPC-3, 48 h.

Consider `COc1cccc2c1cc(C(=O)O)c1c(C(=O)O)cc3c(c12)OCO3` [PAPILISTATIN], for which the MIC in assay [1] was 32 µg/mL (≈ 94 µM); in assay [2], 8 µg/mL (≈ 23.5 µM); in assay [3], 16 µg/mL (≈ 47 µM); in assay [4], 16 µg/mL (≈ 47 µM); in assay [5], 64 µg/mL (≈ 188 µM). Moreover, the GI50 in assay [6] came to 0.096 µg/mL (≈ 0.282 µM); in assay [7], 0.093 µg/mL (≈ 0.273 µM).
